Assay results reported in patent US9408899B2, “Vaccines against Toxoplasma gondii” (priority 2010, dated 2016).
Like-named read-outs stand apart in the source and are kept apart here. No end group written: not given here.

What was measured:
[1] = test system: splenocytes from HLA-A*1101 transgenic mice; experiment: IFN-γ ELISpot with splenocytes of immunized HLA-A*1101 transgenic mice; format: in vivo; settings: for IFN-γ production by splenocytes of lipopeptide-immunized mice: HLA-A*1101 mice immunized twice at three week intervals with lipopeptide in PBS, stimulated with peptides
Description: As controls, mice were injected with PBS. Mice were vaccinated twice at 3-week intervals.
Murine splenocytes: Mice were euthanized 7 to 14 days after immunization. Spleens were harvested, pressed through a 70 μm screen to form a single-cell suspension, and depleted of erythrocytes with AKC lysis buffer (160 mM NH4Cl, 10 mM KHCO3, 100 μM EDTA).
5×10^5 splenocytes were plated per well.
Both murine and human cells were plated in at least 3 replicate wells for each condition. Results were expressed as number of spot forming cells (SFCs) per 10^6 PBMCs or per 10^6 murine splenocytes.
All mouse experiments were repeated at least twice, with 4-5 mice for each group.

HLA-A03 supertype = experiment: MHC-peptide binding assay, number of supertype alleles bound; set-up: species or system human; settings: of six HLA-A03 supertype alleles tested
Description: (§1) Assays were as described in Sidney, J., et al. Immunome Res 4, 2 (2008).

HLA-A*1101 = HLA-A*1101 (Homo sapiens, UniProt P04439, A114D/D185E/E176A/F33Y/L180Q/S129P/T187R); experiment: MHC-peptide binding assay; settings: unit inferred
Description: Under conditions used, where [radiolabeled probe]<[MHC] and IC50≧[MHC], measured IC50 values are reasonable approximations of true Kd values.

HLA-A*3101 = HLA-A*3101 (Homo sapiens, UniProt P04439, A270S/D185E/E176V/E277Q/F33T/G231S/G80R/H175R/I121M/I218V/I322F/K168Q/L300P/L318F/M331R/P217A/Q94H/R138Q/T323A/T345S/T97I/V358M); experiment: MHC-peptide binding assay; settings: MHC binding affinity; IC50 approximates Kd; unit inferred
Description: as §1

HLA-A*0301 = HLA-A*0301 (Homo sapiens, UniProt P04439); experiment: MHC-peptide binding assay; settings: MHC binding affinity; IC50 approximates Kd; unit inferred
Description: as §1

HLA-A*3001 = HLA-A*3001 (Homo sapiens, UniProt P04439, D140H/D185E/E176W/F33S/G80R/H175R/K168Q/R138E/R41S); experiment: MHC-peptide binding assay; settings: MHC binding affinity; IC50 approximates Kd; unit inferred
Description: as §1

HLA-A*3301 = HLA-A*3301 (Homo sapiens, UniProt P04439, A270S/D185E/E176V/E277Q/E87N/F33T/G231S/H175R/I121M/I218V/I322F/K168Q/K210R/L300P/L318F/M331R/P217A/Q86R/Q94H/R138Q/T323A/T345S/T97I/V358M/Y195H); experiment: MHC-peptide binding assay; settings: MHC binding affinity; IC50 approximates Kd; unit inferred
Description: as §1

HLA-A*6801 = HLA-A*6801 (Homo sapiens, UniProt P04439, A269V/D185E/E176V/E277Q/E87N/F33Y/G231S/I121M/I166T/I218V/L180W/L300P/L318F/N151K/P208A/P217A/Q86R/R169H/T345S); experiment: MHC-peptide binding assay; settings: MHC binding affinity; IC50 approximates Kd; unit inferred
Description: as §1

HLA-A*0201 = HLA-A*0201 (Homo sapiens, UniProt P04439, D140Y/D185E/D98H/E176V/E277Q/G131W/G231S/I119V/I121R/I166T/I218V/L300P/L318F/N151K/N90K/P208A/P217A/Q86G/Q94H/R138H/R169H/T345S); experiment: MHC-peptide binding assay (inhibition of binding of radiolabeled standard peptide); settings: for IC50: MHC binding assay, measured IC50 approximates Kd, no unit in table, text b40 speaks of nM, read-out: Affinity (c) HLA-A*0201
Description: (§2) Briefly, 1-10 nM of radiolabeled peptides were co-incubated with 1 M-1 nM purified MHC and 1-3 human β2-microglobulin. After 2 days, binding of radiolabeled peptide to corresponding MHC Class I molecule was determined by capturing MHC-peptide complexes on Greiner GREINER® Lumitrac 600 microplates coated with W6/32 antibody and measuring bound counts per minutes using a Topcount microscintillation counter. […] Under conditions used, where [radiolabeled probe]<[MHC] and IC50≧[MHC], measured IC50 values are reasonable approximations of true Kd values.

[2] = test system: Splenic T cells from HLA-A*0201 mice; experiment: IFN-γ ELISpot with splenocytes of immunized HLA-A*0201 transgenic mice; format: in vivo; settings: for IFN-γ production from T cells of immunized mice: HLA-A*0201 mice immunized with pooled peptides plus PADRE; for IFN-γ production in vitro by T cells from immunized mice: HLA-A*0201 mice immunized with pooled peptides alone, stimulated with the individual peptide
Description: Eleven to fourteen days post immuniztion, spleen cells were isolated and exposed to each individual peptide.
5×10^5 splenocytes were plated per well. All antibodies and reagents used for ELISpot assays were obtained from Mabtech (Cincinnati, Ohio). Cells were plated in at least 3 replicate wells for each condition. Results were expressed as number of spot forming cells (SFCs) per 10^6 PBMCs or per 10^6 murine splenocytes.
Mice were boosted once at a 2-week interval.
Three to five mice from each group were euthanized 7 to 14 days after the last immunization. Spleens were harvested, pressed through a 70 μm screen to form a single-cell suspension, and depleted of erythrocytes with ASK lysis buffer (160 mM NH4Cl, 10 mM KHCO3, 100 μM EDTA).
Each ELISpot experiment was replicated a minimum of twice. P values of ≦0.05 were considered significant.

HLA-A*0203 = HLA-A*0203 (Homo sapiens, UniProt P04439, A173T/D140Y/D185E/D98H/E277Q/G131W/G231S/I119V/I121R/I166T/I218V/L180W/L300P/L318F/N151K/N90K/P208A/P217A/Q86G/Q94H/R138H/R169H/T345S); experiment: MHC-peptide binding assay
Description: as §2

HLA-A*0202 = HLA-A*0202 (Homo sapiens, UniProt P04439, D140Y/D185E/D98H/E176V/E277Q/G131W/G231S/I119L/I121R/I166T/I218V/L180W/L300P/L318F/N151K/N90K/P208A/P217A/Q67R/Q86G/Q94H/R138H/R169H/T345S); experiment: biochemical
Description: as §2

[3] = test system: splenocytes from HLA-B*0702 transgenic mice; settings: HF10 administered as lipopeptide with PADRE or with MLA, earlier work; cited from earlier work
[4] = Table 3, MHC binding assay, read-out: Affinity^b HLA-A*1101

With `CC(C)C[C@H](NC(=O)[C@H](CC(C)C)NC(=O)[C@H](CC(=O)O)NC(=O)[C@H](CCCCN)NC(=O)[C@H](Cc1ccccc1)NC(=O)[C@H](CO)NC(=O)[C@@H](N)CCCNC(=N)N)C(=O)N[C@@H](CCCCN)C(=O)N[C@@H](CCCCN)C(=O)O` the “IFN-γ production on stimulation of spleen cells with the peptide” value ([1]; HLA-A*1101 mice immunized with a mixture of peptides and adjuvants) was “not present”.

In the case of AVVSLLRLLK, the “SUPERTYPE ALLELES BOUND” value (HLA-A03 supertype) is reported as 4, the IC50 (HLA-A*1101; [4]) is reported as 34 nM and the IC50 (HLA-A*3101) is reported as 1300 nM. For the same compound, the IC50 (HLA-A*0301) was 17 nM, the IC50 (HLA-A*3001) was 8.1 nM and the IC50 (HLA-A*3301) was 1100 nM. It also gave an IC50 (HLA-A*6801) of 94 nM.

With FLLGLLVHV [SAG3375-383] the IC50 (HLA-A*0201) was 6.4 nM and the “IFN-γ production from T cells of immunized mice” value (“IFN-γ production from T cells” for short) [2] was “significant IFN-γ production”.

Compound FLSLSLLVI [SAG2C38-46] has a Kd (HLA-A*0201) greater than 50 nM, an IC50 (HLA-A*0201) of 736 nM and a Kd (HLA-A*0203) of 50 to 500 nM. The Kd (HLA-A*0202) was 50 to 500 nM, the “IFN-γ production in vitro by T cells from immunized mice” value [2] was “significant IFN-γ production” and the “IFN-γ production from T cells” value [2] was “significant IFN-γ production”.

FLTDYIPGA [SAG3136-144] gave an IC50 (HLA-A*0201) of 0.7 nM.

For FMIAFISCFA [SAG2D180-189], the IC50 (HLA-A*0201) was 32 nM, the “IFN-γ production in vitro by T cells from immunized mice” value [2] was “significant IFN-γ production” and the “IFN-γ production from T cells” value [2] was “significant IFN-γ production”.

For FMIVSISLV [SAG2X351-359], the IC50 (HLA-A*0201) was 16 nM and the “IFN-γ production from T cells” value [2] was “significant IFN-γ production”.

In the case of FVIFACNFV [SAG2X44-52], the IC50 (HLA-A*0201) is reported as 34 nM and the “IFN-γ production from T cells” value [2] is reported as “significant IFN-γ production”.

GLAAAVVAV [SPA82-90] gave an IC50 (HLA-A*0201) of 9.6 nM.

In the case of “HPGSVNEFDF (listed as Toxoplasma gondii) [HF10]”, the “immunogenic in HLA-B07 transgenic mice” value [3] is listed as “not immunogenic”.

Work on ITMGSLFFV [SPA12-20] yielded an IC50 (HLA-A*0201) of 0.16 nM.

For “LpAM9: lipopeptide: palmitic acid-bearing lysine, PADRE, then AMLTAFFLR (GRA6164-172)”, the “IFN-γ production by splenocytes of lipopeptide-immunized mice” value [1] was “higher IFN-γ production than LpRS9”.

In the case of “LpKS9: lipopeptide: palmitic acid-bearing lysine, PADRE, then KSFKDILPK (SAG1224-232)”, the “IFN-γ production by splenocytes of lipopeptide-immunized mice” value [1] is reported as “higher IFN-γ production than LpRS9”.

With SSAYVFSVK the “SUPERTYPE ALLELES BOUND” value (HLA-A03 supertype) was 5, the IC50 (HLA-A*1101; [4]) was 10 nM and the IC50 (HLA-A*3101) was 97 nM. It also gave an IC50 (HLA-A*0301) of 12 nM, an IC50 (HLA-A*3001) of 1830 nM and an IC50 (HLA-A*3301) of 181 nM. It also gave an IC50 (HLA-A*6801) of 2.1 nM.

With STFWPCLLR the “SUPERTYPE ALLELES BOUND” value (HLA-A03 supertype) was 5, the IC50 (HLA-A*1101; MHC binding affinity, Table 2b, IC50 approximates Kd, read-out: HLA-A*1101) was 10 nM and the IC50 (HLA-A*3101) was 1.2 nM. The IC50 (HLA-A*0301) was 22 nM, the IC50 (HLA-A*3001) was 1270 nM and the IC50 (HLA-A*3301) was 3.4 nM. For the same compound, the IC50 (HLA-A*6801) was 0.97 nM.
